The results in this text go back to patent publication US11414379B2, “SPAK kinase inhibitors as neuroprotective agents” (United States Government as represented by the Department …, priority 2018, dated 2022).

On the set-up of data set [1]: species or system ICR mice. Particulars: ICR, mouse, in vivo. The procedure: Referring to Table 3, ZT-1a pharmacokinetics were determined following a single 5 mg/kg intravenous (IV) dose and a single 10 mg/kg oral (PO) dose in ICR mice (N=3 at each time point). Blood samples were collected at 0.08, 0.25, 0.5, 1, 2, 4, 8, 10 & 24 hr (IV) & 0.25, 0.5, 1, 2, 4, 8, 10 & 24 hr (PO) post dose. Samples were subjected to drug assay by LC-MS/MS, and data were analyzed by WinNonlin V6.3. Tmax=time of maximum plasma concentration, Cmax=maximum plasma concentration, AUC=area under the curve (measure of exposure), T1/2=half life, CL=plasma clearance, Vz=volume of distribution, MRT, mean residence time; F=oral bioavailability.

Data set [2] has as its system SPAK Ser373, NKCC1 Thr203/207/212 and KCCs phosphorylation. Briefly: Phosphorylation immunoblot in HEK293 cells. It counts as cell-based, human. On the procedure:
HEK293 (human embryonic kidney 293) cells were cultured on 10-cm-diameter dishes in DMEM supplemented with 10% (v/v) foetal bovine serum, 2 mM L-glutamine, 100 U/ml penicillin and 0.1 mg/ml streptomycin. HEK293 cells were transfected with a mixture of 20 μl of 1 mg/ml polyethylenimine (Polysciences) and 5-10 μg of plasmid DNA as described previously (Durocher et al., 2002). 36 hours post-transfection cells were stimulated with either control isotonic or hypotonic medium for a period of 30 minutes. Cells were lysed in 0.3 mL of ice-cold lysis buffer/dish, lysates were clarified by centrifugation at 4° C. for 15 minutes at 26,000 g and the supernatant aliquots were frozen in liquid nitrogen and stored at −20° C. Protein concentrations were determined using the Bradford method. Cells were treated with the indicated concentrations of the SPAK/OSR1 inhibitors. […] Hypotonic low chloride buffer was 67.5 mM sodium-gluconate, 2.5 mM potassium-gluconate, 0.25 mM CaCl2), 0.25 mM MgCl2, 0.5 mM Na2HPO4, 0.5 mM Na2SO4 and 7.5 mM HEPES (pH 7.5).
The membranes were incubated for 30 min with TBST (Tris-buffered saline, 0.05% Tween-20) containing 5% (w/v) skim milk. […] After repeating the washing steps, signals were detected with enhanced chemiluminescence reagent. […] The densities of bands were measured with ImageJ. […]
Background: In western blotting, separated proteins are transferred to a membrane and probed.

Like-named read-outs stand apart in the source and are kept apart here.

A word on the AUC: it is the area under the concentration-time curve, a measure of exposure. Broadly, the Vz is a proportionality between amount in the body and measured concentration, not a real space. Higher therefore signals extensive tissue distribution. Turning to `Cc1cc(C(C#N)c2ccc(Cl)cc2)c(Cl)cc1NC(=O)c1cc(Cl)ccc1O` (centres unmarked) [ZT-1a, 5-chloro-N-(5-chloro-4-((4-chlorophenyl)(cyano)methyl)-2-methylphenyl)-2-hydroxy-benzamide], the AUC in data set [1] is 2340 ng·h/mL. Moreover, in data set [1] (iv, 5 mg/kg), the C0 was found to be 14900 ng/mL, the Cl came out at 35.5 mL/min/kg, the “MRT(0-∞)” value is 0.45 h and the Vz is 0.948 L/kg. Further, the “MRT(0-∞)” value in data set [1] (po, 10 mg/kg) was 3.3 h. Also, the “concentration inhibiting phosphorylation of SPAK Ser373, NKCC1 Thr203/207/212 and KCCs” value in data set [2] was 3 µM. Moreover, the “effect on SPAK/OSR1 Ser373/Ser325 and NKCC1 Thr203/Thr207/Thr212 phosphorylation” value in data set [2] (dose-dependent (1-10), hypotonic low Cl- and isotonic conditions) is listed as “markedly inhibited”.
